Source: patent publication US11738072B2, “Tumor vaccine and uses thereof” (WestVac Biopharma Co., Ltd., priority 2017, dated 2023)

Legend:
[1] = system: mouse cervical cancer cell line U14; experiment: Mice U14 subcutaneous model, complex combined with chemotherapy; format: in vivo, C57 female mice; conditions: U14 sc
Procedure: C57 female mice aged 6-8 weeks were raised. The mouse cervical cancer cell line U14 cultured to the logarithmic growth phase was prepared into a cell suspension and the cell density was 2×10^7/ml. Experimental animals were subcutaneously injected on the right back, with an injection system of 100 μl per mouse. When the tumor could be palpated (tumor volume is about 4 mm×4 mm×3 mm, i.e. the 5th day after inoculation), the mice were randomly divided into 6 groups, and administrated every 3 days for a total of 8 times according to the grouping and treatment scheme in Table 16. The tumor volume was measured every three days. After administration for 8 times, the mice were killed and subcutaneous tumors were dissected for examination.
Wherein, the administration volume is 100 μl per mouse, DDP is intraperitoneally administrated once a week. DDP is Cisplatin and LP is pMVA-1/DOTAP complex.

A549 cells [2] = experiment: ROS level by H2DCF-DA fluorescence probe, flow cytometry; format: cell-based
Procedure: (1) Sample loading: […] (3) […] CM-H2DCFDA fluorescent probe (made by Sigma) was added to the resuspended cells prepared in Step (2), incubated at 37° C. for 0.5 h, washed with PBS and resuspended; (4) The resuspended cells in Step (3) were tested with flow cytometry (Novocyte), and the test results were analyzed by Novoexpress software.

A549 cells [3] = experiment: Death ratio of A549 cells pretreated with NAC, flow cytometry; format: cell-based; conditions: pretreated with NAC before pMVA-1/DOTAP complex

## N.N.[Cl][Pt][Cl] [Cisplatin]
[1]
  lymphocyte infiltration in tumor tissue: less common
[1]; Q3d x 8
  tumor volume vs NS group, DOTAP group and pMVA-1 group: significantly lower
[1]; Q3d x 8, Cisplatin ip once a week
  tumor growth: slow tumor growth

## OO [H2O2]
A549 cells [2]; A549, 3 h, H2O2 at 200 μM, *P<0.05
  intracellular ROS level: increased significantly

## CC(=O)N[C@@H](CS)C(=O)O [NAC, N-Acetyl-L-cysteine]
A549 cells [2]; A549 pretreated with 5 mM NAC before pMVA-1/DOTAP complex
  intracellular ROS level after NAC pretreatment: decreased significantly
A549 cells [3]
  death ratio of A549 cells: significantly reduced
